{
  "source": "patent US9607202B2",
  "about": "“Methods of generating trophectoderm and neurectoderm from human embryonic stem cells” (UNIVERSITY OF PITTSBURGH—OF THE COMMONWEALTH SYSTEM OF …, priority 2009, dated 2017)",
  "key": {"hESCs [1]": {"tested_on": "hESCs", "test": "hESC viability and OCT4 expression in minimal induction media", "assay_type": "cell-based, human"}, "[2]": {"tested_on": "pluripotent hESCs, line H7", "test": "TE-induction and lineage selectivity of hESCs by transcription factor immunostaining (CDX2, brachyury, GATA6, OCT4)", "assay_type": "cell-based, human", "description": "Pluripotent hESCs, line H7, were grown on mitomycin-treated MEFs (GlobalStem) at normal-density (120,000 cells/6 cm^2), maintained in DSR media (Table 1), and passaged weekly using Collagenase IV (Invitrogen/Gibco) and StemPro®EZPassage™ (Invitrogen) as directed. Cell colonies were briefly spun, resuspended in DSR, and plated onto normal density MEFs in CM (Table1). For TE-directed differentiation, hESCs were passaged at 1:5 dilution onto low-density MEFs (30,000 cells/6 cm^2) using DSR media minus FGF2 supplemented with BMP4 (Invitrogen, PHC7914) 100 ng/mL. Media was changed daily.\nFeeder-free hESCs were grown on Geltrex (Invitrogen)-coated plates in StemPro (Invitrogen), passaged weekly with Collagenase IV or Accutase (StemCell Technologies) as directed, resuspended in StemPro and plated onto Geltrex-coated plates. For TE-directed differentiation pluripotent hESCs maintained in StemPro or in Erb's Minimal Induction Media (EMIM) were passaged onto feeder-free, Geltrex-coated plates into respective basal media supplemented with the activin A antagonist, SB431542 (10 uM), and/or BMP4 (100 ng/mL or 500 ng/mL) as indicated. Media was changed daily. Terminal STB differentiation was accomplished by culturing hESCs in EMIM+SB+100 ng/mL BMP4 for 14 days.\nIn PBS, cell colonies were fixed with 2% paraformaldehyde, permeabilized with 1% Triton X-100 (Sigma, St. Louis Mo.), and non-specific antibody binding blocked with 10% goat serum. Primary antibodies (Table 2) were diluted in 1% goat serum, spun briefly, and incubated overnight at 37° C. After a wash in PBS-Tween 0.05% a species-specific fluorescent secondary antibody (prepared as above) was added for 60 min at 37° C. Cells were washed in PBS-Tween 0.05%, incubated in Hoechst […] (1:10,000), and mounted in Gelvatol polyvinyl alcohol-based media (Sammak et al., 1987).\nNuclear labeling (Hoechst 33342) facilitates automated image segmentation for counting cell number. Since pluripotent hESCs can differentiate along multiple lineages, TE-differentiation was determined by immunostaining for transcription factors localized to the cell's nucleus or cytoplasm (Table 2). Four color microscopy permits co-labeling of cells with markers of pluripotent hESCs (OCT4), TE cells (CDX2), and alternative markers for early differentiation including neurectoderm (nestin), mesoderm (brachyury), or extraembryonic endoderm\n(GATA6). TE-induction was determined by two criteria: 1) the percentage of all cells that were CDX2-positive and the fold change of CDX2-nuclear intensity over control, unstimulated cells. […] TE selectivity was determined by a significant percentage of CDX2-positive cells and a suppression of the percentage of nestin-, brachyury-, and GATA6-positive cells.\n96-well Microplates were scanned using the 5 or 10× objective on the ArrayScan V Automated image analysis was performed using the Compartmental Analysis BioApplication using Hoechst for identification of nuclei and various transcription factor antibodies (Table 2). Nuclear-specific fluorescence intensity was determined from approximately 300 single cells per well from 3-6 independent wells to produce a well-average nuclear intensity for each measurement Mean and standard deviation were calculated from multiple wells. Fold change of the mean intensities were normalized against matched unstimulated external controls, usually the pluripotent condition, to divide out differences due to efficiency of antibody-antigen binding and chromophore quantum yield. […] Select conditions are additionally compared in bar graph format to show standard deviations and T-tests."}, "rNSCs": {"tested_on": "rNSCs", "test": "Neuronal differentiation of rNSCs cultured on different surfaces", "assay_type": "cell-based, rat", "description": "All coverslips (Fisher scientific, Pittsburgh, Pa.) were adhered onto the bottom of 24-well plate with Kwik Sil (World Precision Instruments, Inc., Sarasota, Fla.). Before cell seeding, the surface of coverslips were sterilized under UV for 30 min, and then immersed into PBS for 30 min. Laminin (BD Biosciences, San Jose, Calif.) coated glass coverslips were also prepared as control substrates for cell culture. […]\n(§1) Neuronal differentiation was detected by anti-βIII tubulin for hESCs, anti-NF200 for rNSCs. […]\nFor rNSCs, neuronal cells (NF200 positive) were counted on the whole coverslips and averaged values across all coverslips were presented as mean±SD. Total cell number was calculated from the number of nuclei. Cell nuclei were counted on ten randomly selected images, averaged, divided by image area and then multiplied by the area of coverslip. […] Cell density was calculated by dividing values of cell number by the image area. Neurite length was measured using Image J and plug-in Neuron J. Length of the primary neurite and all neurites of each cell in each group was measured by tracing the neurites of NF200 positive cells with the tracing algorithm contained in Neuron J. Primary neurite was defined as the longest process out of cell body. […]"}, "hESCs (line UCO6 (HSF6))": {"tested_on": "hESCs (line UCO6 (HSF6))", "test": "Neuronal differentiation of hESCs on different surfaces", "assay_type": "cell-based, human", "description": "All coverslips (Fisher scientific, Pittsburgh, Pa.) were adhered onto the bottom of 24-well plate with Kwik Sil (World Precision Instruments, Inc., Sarasota, Fla.). Before cell seeding, the surface of coverslips were sterilized under UV for 30 min, and then immersed into PBS for 30 min. Laminin (BD Biosciences, San Jose, Calif.) coated glass coverslips were also prepared as control substrates for cell culture.\nhESCs, line HSF6 obtained from the University of California-San Francisco and WiCell, respectively were approved by the University of Pittsburgh ESCRO committee with IRB exempt approval. hESCs were maintained in ES-DMEM high glucose with 20% KSR, 1% MEM NEAA (WiCell Research Institute, Madison, Wis.), Pen/Strep (10,000 U/10,000 ug), 1% L-Glutamine (2 mM), and 8 ng/mL bFGF (Invitrogen, Carlsbad, Calif.), and passaged in 50-100 cell clusters as recommended. hESCs were grown on mitomycin-treated MEFs prepared from 14-day CF-1 embryos. Media was changed every other day and colonies were mechanically passaged every […] with a Pasteur pipette. […]\nas §1"}, "hESCs [3]": {"tested_on": "hESCs", "test": "Terminal differentiation to syncytia (percentage of bi- or multi-nucleated cells)", "assay_type": "cell-based, human", "conditions": "neurectoderm culture conditions induced by noggin"}, "hESC": {"tested_on": "hESC", "test": "Neurectoderm differentiation from hESCs in noggin media", "assay_type": "cell-based, human", "conditions": "small colonies from StemPro", "description": "There are several laboratories that have applied the BMP4 antagonist noggin for differentiation of hESC to neurectoderm or neural stem cells (Ying, Stavridis et al. 2003; Gerrard, Rodgers et al. 2005; Yao, Chen et al. 2006; Cohen, Itsykson et al. 2007). Here, small colonies grown in StemPro are used as the starting material. Cells were plated in StemPro media or neural differentiation media (DMEM/F12 media supplemented with N2/B27). After each day of growth, colonies with the smallest colonies were changed into Noggin media. When colonies grown in noggin had differentiated along a neurectoderm lineage, the cells were fixed for immunostaining. If the colonies had not differentiated, the media was changed and the cells remained in Noggin media for another day. The process was repeated each day for 6-7 days. Cells were immunostained with the following antibodies: Pax6 mouse (Santa Cruz), Otx2 rabbit (Abeam), Nestin mouse (Covance), Alexa 488 goat anti mouse green, Cy3 goat anti rabbit red, Cy5 goat anti mouse far red."}, "[4]": {"conditions": "short-term treatment in StemPro (SB or low-dose BMP4 alone)"}},
  "data": [
    {"molecule": "OCCS", "note": "[β-mercaptoethanol]", "values": [
      {"measurement": "hESC survival", "setting": "hESCs [1]; addition to minimal induction media with or without heparin", "result": "reduced hESC survival"}
    ]},
    {"molecule": "NC(=O)c1ccc(-c2nc(-c3ccc4c(c3)OCO4)c(-c3ccccn3)[nH]2)cc1", "note": "[SB, SB431542]", "values": [
      {"measurement": "brachyury expression", "setting": "[2]; [4]", "result": "significant increase in brachyury expression"}
    ]},
    {"molecule": "laminin", "values": [
      {"measurement": "percentage of neurons (NF200 positive cells)", "setting": "rNSCs; 7 d", "result": "higher percentage of neurons"},
      {"measurement": "percentage of neurons (NF200 positive cells)", "setting": "rNSCs; 14 d", "result": "higher percentage of neurons"},
      {"measurement": "number of cells per colony", "setting": "hESCs (line UCO6 (HSF6)); end of the second week (14 days)", "result": "indistinguishable"},
      {"measurement": "adhesion and spreading of hESC embryoid bodies/colonies", "setting": "hESCs (line UCO6 (HSF6)); feeder-free, within the first week", "result": "adhered"}
    ]},
    {"molecule": "heparin", "values": [
      {"measurement": "hESC viability", "setting": "hESCs [1]; basal media once BMP4 was supplemented", "result": "improve hESC viability"}
    ]},
    {"molecule": "BMP4: bone morphogenic protein (BMP4), TGFβ superfamily member", "values": [
      {"measurement": "fraction of cell population induced to non-TE lineages", "setting": "[2]; 100 ng/mL BMP4 in MIM", "result": "over half of the cell population"},
      {"measurement": "TE-induction efficiency as frequency of CDX2 staining", "setting": "[2]; BMP4, monolayer colonies, DSR/MEF culture (low density MEFs minus FGF2), 7 days", "result": 3.6, "unit": "%"},
      {"measurement": "TE-induction efficiency as frequency of CDX2 staining", "setting": "[2]; BMP4, multilayer colonies, DSR/MEF culture, 7 days", "result": 44.4, "unit": "%"},
      {"measurement": "increase in percent brachyury (T) positive cells", "setting": "[2]; BMP4 added to StemPro for 48 hours", "result": 6, "unit": "fold"},
      {"measurement": "CDX2 induction", "setting": "[2]; BMP4 alone 500 ng/mL in EMIM, day 2", "result": "Significant CDX2 induction"},
      {"measurement": "extraembryonic endoderm (GATA6) positive cells", "setting": "[2]; BMP4 in MIM", "result": "~20", "unit": "%"},
      {"measurement": "mesoderm (brachyury) positive cells", "setting": "[2]; BMP4 in MIM", "result": "over 40%"},
      {"measurement": "OCT4 expression", "setting": "[2]; BMP4 supplementation on low density MEFs", "result": "decreased OCT4 expression"},
      {"measurement": "CDX2 expression", "setting": "[2]; BMP4 supplementation to EMIM, culture day 7", "result": "induced diffuse CDX2 expression"},
      {"measurement": "GATA6 over MIM alone", "setting": "[2]; BMP4 supplementation to MIM", "result": "did not increase"},
      {"measurement": "brachyury over MIM alone", "setting": "[2]; BMP4 supplementation to MIM", "result": "did not increase"},
      {"measurement": "fold induction of CDX2 over MIM alone", "setting": "[2]; BMP4 supplementation to MIM", "result": "significantly increased"},
      {"measurement": "TE-induction efficiency as frequency of CDX2 staining", "setting": "[2]; StemPro containing BMP4, MEF-free, 4 days", "result": 93.7, "unit": "%"},
      {"measurement": "brachyury expression", "setting": "[2]; addition of BMP4 to StemPro", "result": "dose-dependent, statistically significant increase"},
      {"measurement": "brachyury expression", "setting": "[2]; [4]", "result": "significant increase in brachyury expression"}
    ]},
    {"molecule": "noggin: BMP4 antagonist protein; mouse recombinant noggin (protein, UniProt P97466 28-232, looked up) Noggin: QHYLHIRPAPSDNLPLVDLIEHPDPIFDPKEKDLNETLLRSLLGGHYDPGFMATSPPEDRPGGGGGPAGGAEDLAELDQLLRQRPSGAMPSEIKGLEFSEGLAQGKKQRLSKKLRRKLQMWLWSQTFCPVLYAWNDLGSRFWPRYVKVGSCFSKRSCSVPEGMVCKPSKSVHLTVLRWRCQRRGGQRCGWIPIQYPIISECKCSC", "values": [
      {"measurement": "multinucleated cells", "setting": "hESCs [3]", "result": "absent"},
      {"measurement": "efficiency of producing Nestin-positive cells", "setting": "hESC", "result": "~100", "unit": "%"},
      {"measurement": "time to produce Nestin-positive cells", "setting": "hESC", "result": "3 to 7", "unit": "days"}
    ]}
  ]
}
